According to PMC3579193, “Elucidation of relaxin-3 binding interactions in the extracellular loops of RXFP3” (Frontiers in Endocrinology, 2013):
Changes are numbered by the printed parent chain. pIC50: −log10 of the molar value.

Columns and labels:
HA-RXFP3 = target: T1, HA-RXFP3 (Homo sapiens, UniProt Q9NSD7); experiment: Competition binding with Eu-H3/I5, HA-RXFP3; conditions: HA-RXFP3 vs wild-type RXFP3, competition binding
T1 construct: expressed in transfected cells; host or cells: HEK-293T
T1 sequence (Q9NSD7 2-469 limits assumed): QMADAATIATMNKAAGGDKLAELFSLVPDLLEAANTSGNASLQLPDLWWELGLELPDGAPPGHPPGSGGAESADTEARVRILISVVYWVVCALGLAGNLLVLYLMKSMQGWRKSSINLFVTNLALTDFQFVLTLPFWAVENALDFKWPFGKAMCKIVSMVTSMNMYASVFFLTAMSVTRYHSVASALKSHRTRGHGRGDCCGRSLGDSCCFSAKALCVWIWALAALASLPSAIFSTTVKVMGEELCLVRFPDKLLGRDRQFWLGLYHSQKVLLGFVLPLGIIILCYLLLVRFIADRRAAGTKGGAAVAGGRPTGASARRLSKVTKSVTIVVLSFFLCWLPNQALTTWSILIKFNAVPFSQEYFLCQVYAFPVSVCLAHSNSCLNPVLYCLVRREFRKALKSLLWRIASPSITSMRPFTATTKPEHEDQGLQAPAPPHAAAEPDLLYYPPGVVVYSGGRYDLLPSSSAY
Protocol: HEK-293T cells were transfected in 96 well optiplates (Perkin Elmer) with plasmids encoding the constructs of interest and Eu-H3/I5 binding assays conducted as described previously ([Luo et al., 2010]; [Haugaard-Kedstrom et al., 2011]). […] Binding data are expressed as mean ± standard error of mean (SEM) of % specific binding of triplicate measurements pooled from at least three independent experiments. Data were analyzed using Graphpad PRISM (Graphpad Inc.) and a non-linear regression one-site binding model was used to plot curves and calculate pIC50 values. All the RXFP3 constructs used in this study contained an N-terminal HA epitope. The HA epitope was detected using a purified mouse monoclonal anti-HA antibody [HA.11(16B12), Covance] and a Alexafluor488-labeled goat anti mouse IgG (Invitrogen) in cell surface expression assays that were performed in 24 well plates as previously described ([Yan et al., 2008]). […] Specific binding data for RXFP3 mutants was expressed as mean ± SEM of % specific binding/%HA-RXFP3 cell surface expression of triplicate measurements pooled from at least three independent experiments. Pooled data were analyzed using one-way ANOVA coupled to Newman–Keuls multiple comparison test for multiple group comparison.

HA-RXFP3 ∆1–33 = target: T2, HA-RXFP3 ∆1–33 (Homo sapiens, UniProt Q9NSD7); experiment: Competition binding with Eu-H3/I5, HA-RXFP3 ∆1–33
T2 construct: expressed in transfected cells; host or cells: HEK-293T
T2 sequence (Q9NSD7 34-469): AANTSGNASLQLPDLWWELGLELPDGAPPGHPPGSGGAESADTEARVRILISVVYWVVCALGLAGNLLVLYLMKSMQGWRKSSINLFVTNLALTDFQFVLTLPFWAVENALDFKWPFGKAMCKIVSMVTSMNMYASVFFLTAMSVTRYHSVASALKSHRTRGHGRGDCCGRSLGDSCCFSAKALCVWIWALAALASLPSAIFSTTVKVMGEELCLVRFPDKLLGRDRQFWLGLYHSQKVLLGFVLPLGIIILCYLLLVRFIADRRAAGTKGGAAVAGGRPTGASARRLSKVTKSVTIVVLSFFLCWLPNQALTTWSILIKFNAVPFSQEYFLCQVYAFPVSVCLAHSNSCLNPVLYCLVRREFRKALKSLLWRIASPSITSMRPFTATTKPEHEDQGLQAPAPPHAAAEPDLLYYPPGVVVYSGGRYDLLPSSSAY
From the text: (§1) PCR reactions and cloning were undertaken as previously described ([Scott et al., 2006], [2012]).
A pcDNA3.1zeo (+) vector with a start codon and HA tag (pcDNA3.1zeo (+)-HA) was produced by ligating a double stranded primer containing a BamHI site at the 5′ end followed by a start codon and HA tag and then a EcoRV blunt site at the 3′ end (Table 2) into a pcDNA3.1zeo (+) vector cut with BamHI and EcoRV. […]
HEK-293T cells were transfected in 96 well optiplates (Perkin Elmer) with plasmids encoding the constructs of interest and Eu-H3/I5 binding assays conducted as described previously ([Luo et al., 2010]; [Haugaard-Kedstrom et al., 2011]). […] Binding data are expressed as mean ± standard error of mean (SEM) of % specific binding of triplicate measurements pooled from at least three independent experiments. Data were analyzed using Graphpad PRISM (Graphpad Inc.) and a non-linear regression one-site binding model was used to plot curves and calculate pIC50 values. […] The HA epitope was detected using a purified mouse monoclonal anti-HA antibody [HA.11(16B12), Covance] and a Alexafluor488-labeled goat anti mouse IgG (Invitrogen) in cell surface expression assays that were performed in 24 well plates as previously described ([Yan et al., 2008]). […] Pooled data were analyzed using one-way ANOVA coupled to Newman–Keuls multiple comparison test for multiple group comparison.

HA-RXFP3 D75A = target: T3, HA-RXFP3 D75A (Homo sapiens, UniProt Q9NSD7, D75A); experiment: Competition binding with Eu-H3/I5, HA-RXFP3 D75A
T3 construct: expressed in transfected cells; host or cells: HEK-293T
T3 sequence (Q9NSD7 2-469 D75A limits assumed): T1 sequence (Q9NSD7 2-469 limits assumed) with D74A
Protocol: as §1
The same protocol was used to prepare DNA templates of all Glu/Asp to Ala mutants, entailing a single codon change except for D47A/E51A, E55A/D58A, and E141A/D145A which required a double codon change both to Ala. The forward and reverse primers for all mutants are listed in Table 1 and mutagenesis reactions on pcDNA3.1zeo (+)-HA-RXFP3 were performed as previously described ([Scott et al., 2006]; [Yan et al., 2008]). […]
HEK-293T cells were transfected in 96 well optiplates (Perkin Elmer) with plasmids encoding the constructs of interest and Eu-H3/I5 binding assays conducted as described previously ([Luo et al., 2010]; [Haugaard-Kedstrom et al., 2011]). […] Binding data are expressed as mean ± standard error of mean (SEM) of % specific binding of triplicate measurements pooled from at least three independent experiments. Data were analyzed using Graphpad PRISM (Graphpad Inc.) and a non-linear regression one-site binding model was used to plot curves and calculate pIC50 values. […] The HA epitope was detected using a purified mouse monoclonal anti-HA antibody [HA.11(16B12), Covance] and a Alexafluor488-labeled goat anti mouse IgG (Invitrogen) in cell surface expression assays that were performed in 24 well plates as previously described ([Yan et al., 2008]). […]

CC[C@H](C)[C@@H]1NC(=O)[C@H](Cc2ccccc2)NC(=O)[C@H](CCC(=O)O)NC(=O)[C@H](CCCNC(=N)N)NC(=O)CNC(=O)[C@@H](NC(=O)[C@H](CC(C)C)NC(=O)[C@H](CCCNC(=N)N)NC(=O)[C@@H](NC(=O)CNC(=O)[C@H](Cc2ccc(O)cc2)NC(=O)[C@@H]2CCCN2C(=O)[C@H](C)NC(=O)[C@H](C)NC(=O)[C@@H](N)CCCNC(=N)N)C(C)C)CSSC[C@@H]2NC(=O)[C@@H](NC(=O)[C@H](CO)NC(=O)[C@H](CO)NC(=O)[C@H](CO)NC(=O)[C@H](CC(C)C)NC(=O)CNC(=O)[C@H](C)NC(=O)[C@H](CC(C)C)NC(=O)[C@@H](NC(=O)[C@@H](N)CC(=O)O)C(C)C)CSSC[C@H](NC(=O)CNC(=O)[C@H](Cc3c[nH]c4ccccc34)NC(=O)[C@H](CCCCN)NC2=O)C(=O)N[C@@H](CO)C(=O)N[C@@H](CCCCN)C(=O)N[C@@H](CO)C(=O)N[C@@H](CCC(=O)O)C(=O)N[C@@H]([C@@H](C)CC)C(=O)N[C@@H](CO)C(=O)N[C@@H](CO)C(=O)N[C@@H](CC(C)C)C(=O)N[C@H](C(=O)O)CSSC[C@@H](C(=O)NCC(=O)NCC(=O)N[C@@H](CO)C(=O)N[C@@H](CCCNC(=N)N)C(=O)N[C@@H](Cc2c[nH]c3ccccc23)C(=O)O)NC(=O)[C@H]([C@@H](C)O)NC(=O)[C@H](Cc2ccccc2)NC(=O)[C@H]([C@@H](C)CC)NC(=O)[C@H](C(C)C)NC(=O)[C@H](C)NC(=O)[C@H](CCCNC(=N)N)NC1=O [H3 relaxin] was tested, and the “binding affinity compared with wild-type RXFP3” value (HA-RXFP3) was “no difference in the binding affinity”, the pIC50 (HA-RXFP3 ∆1–33) was 7.83 and the “effect on affinity of truncation” value (HA-RXFP3 ∆1–33; vs HA-RXFP3, competition binding) was “no significant effect on the affinity”. For the same compound, the pIC50 (HA-RXFP3 D75A) was 7.70 and the “affinity compared with HA-RXFP3” value (HA-RXFP3 D75A; competition binding) was “no significant difference in the affinity”.
